Data on three molecules can be found in USRE43932E1, “Crystal modification of a N-phenyl-2-pyrimidineamine derivative, processes for its manufacture and its use” (Novartis AG, priority 1997, dated 2013).

The subject of one series is PDGF receptor. The series is described as follows: PDGF-stimulated receptor tyrosine kinase activity in PDGF receptor immune complexes of BALB/c 3T3 cells. The class given is biochemical. As to the method:
The inhibition of PDGF-stimulated receptor tyrosine kinase activity in vitro is measured in PDGF receptor immune complexes of BALB/c 3T3 cells, as described by E. Andrejauskas-Buchdunger and U. Regenass in Cancer Research 52, 5353-5358 (1992).

Series [1] has as its system angiogenic effect of growth factors (VEGF, PDGF, bFGF). The series is described as follows: Subcutaneous agar chamber angiogenesis model with growth factor. The class given is in vivo, mice (C57 BL/6). The conditions noted are these: mice, oral dose of 50 mg/kg once daily, chambers removed after 5 days. As to the method:
Dosing is started one day before implantation of the chambers. The chambers are removed after 5 days. The angiogenic efficacy is quantified by measuring both the vascularised tissue which has grown around the implant and the blood content of this tissue (external blood). The blood is determined by measuring the haemoglobin.

Series [2] in a line: Flow properties of the crystals. The following applies: for solid dosage forms. It is filed as physicochemical.
The subject of another series is denuded thoracic aorta. The series is described as follows: Rat thoracic aorta denudation, cell counts. The class given is in vivo, male Wistar rats. The following applies: rats, 50 mg/kg i.p. per day.
The test system of series [3] is tracheal allogenic transplants. The following applies: 50 mg/kg combined with CsA 1 mg/kg s.c. An excerpt: In contrast to patients without OB, those with OB often show an elevated PDGF concentration in bronchoalveolar lavage fluids.
Series [4] deals with denuded left common carotid artery. The series is described as follows: Rat carotid artery denudation, cell counts and BrdU labelling. It is filed as in vivo, male Wistar rats. (In general: Incorporation of labelled thymidine or its analogues reports DNA synthesis.)

As to `Cc1ccc(NC(=O)c2ccc(CN3CCN(C)CC3)cc2)cc1Nc1nccc(-c2cccnc2)n1` [compound of formula I], the “PDGF-dependent acellular receptor phosphorylation” value in the series on PDGF receptor is “inhibits”. Besides, the “Angiogenic effect of growth factors (VEGF, PDFG, bFGF)” value in series [1] was “inhibits”.
`CS(=O)(=O)O.Cc1ccc(NC(=O)c2ccc(CN3CCN(C)CC3)cc2)cc1Nc1nccc(-c2cccnc2)n1` [β-crystal form]: the Flow properties entry in series [2] was “substantially more favourable than those of the α-crystal form”. For the same molecule, the “Number of smooth-muscle cells in aorta-denuded animals” value with denuded thoracic aorta is “Decreases”. In addition, the “Effect of combination with CsA” value in series [3] is given as “synergism”. Besides, in series [4] (first two labelling periods (0-72 and 72-96 h)), the “Absolute number of BrdU-labelled cells in the intima, media, and adventitia” value is reported as “slight decrease”. Also, the “Number of BrdU-labelled cells in all compartments” value in series [4] (labelling after 93-96 h) is listed as “decrease”. In series [4] (rats, 50 mg/kg i.p. per day, 4 days after denudation), the “Cell count for smooth-muscle cells in the carotid” value is on record as “significant decrease”. Besides, the “Cell count in the adventitia and the media” value in series [4] (rats, 50 mg/kg i.p. per day, carotid denudation) is reported as “significant reduction”.
As to `CS(=O)(=O)O.Cc1ccc(NC(=O)c2ccc(CN3CCN(C)CC3)cc2)cc1Nc1nccc(-c2cccnc2)n1` [α-crystal form], in series [2], the Flow properties entry is on record as “unfavourable”.
